The values that follow come from patent publication US20230065562A1, “DUAL CONTROLS FOR THERAPEUTIC CELL ACTIVATION OR ELIMINATION” (Bellicum Pharmaceuticals, Inc., priority 2015, published 2023).

Data set [1] has as its system 293 cells.
Description: FIG. 12B: Cultures of HEK-293 cells were transfected (via Genejuice, Novagen) with the constitutive SRα-SEAP reporter plasmid (pBP0046, 1 μg), a fusion of human FKBP12 with human Caspase-9 (pBP0044, 2 μg) and FRB-encoding expression constructs, containing four copies of FRBL (pBP0725, 2 μg) or control vectors encoding zero or one copy of FRBL.
To determine if iCaspase-9 could be aggregated by tandem multimers of FRBL, one to four tandem copies of FRBL were subcloned into an expression vector, pSH1, driving transgene expression from an SRα promoter. […] 293 cells were transfected with the SRα-SEAP reporter plasmid along with FKBP12-ΔCaspase-9 (iCaspase-9/iC9), plus 1 of several FRB-based, non-myristoylated scaffold proteins containing 0, 1, or 4 tandem copies of FRBL.
The subject of data set [2] is EGFPluciferase-labeled T cells. Briefly: In vivo function of rapamycin/rimiducid-inducible Caspase-9 switches in NSG mice (luciferase-labeled T cells).
Description: T cells were activated and co-transduced with the “iMC+CARζ”, SFG-iMC-2A-CAR.ζ vector, and a iC9-X vector, SFG-FRB.FKBP12.C9-2A-ΔCD19 to create a CombiCAR.
8-week-old female, immune-deficient mice (NOD.CgPrkdc^scidIl2^tm1Wjl/SzJ; NSG) were injected IV with 1×10^6 T cells in 100 p1 PBS. Mice were subjected to IVIS imaging ˜4 hrs after T cell injection (˜14 hrs post-drug administration). […] Mice were imaged again at 5-6 hrs, and 24 hrs after drug injection. Mice were sacrificed and spleens were removed for FACS analysis.
Mice were imaged for firefly luciferase-derived bioluminescence at the indicated time points relative to administration of drug or vehicle.
The test system of data set [3] is iRmC9 T cells (pBP1327, GFP-Fluc). Briefly: In vivo apoptotic activation in NSG mice, iRmC9 T cells (IVIS imaging, spleen FACS). Further details: species or system mouse. Conditions: 5 mg/kg rimiducid or 10 mg/kg rapamycin i.p.; spleen FACS, FIG. 109D. As for the experimental part:
(§1) PBMCs from donor 676 were activated and co-transduced with one of the off-switches and GFP-Fluc retroviruses. Eleven days after transduction, cells were analyzed for transduction efficiency with GFP and anti-CD3/anti-CD19 antibodies (FIG. 109A). […] The CD19^+ MFI for the different T cell populations were: iC9=15.07, iRC9=14.38, and iRmC9=13.39. The cells were collected, counted, washed, and resuspended at 1×10^6 cells in 100 μl PBS for each tail vein mouse injection (Table 10) (time=−18 hr). […] IVIS imaging was performed at −14, 0, 5, 24 and 29 hours. Mice were sacrificed and spleens were collected for FACS analysis with hCD3, hCD19 and mCD45 antibodies. […] The higher percentage of remaining iRmC9 T cells observed may be due to an artifact of normalizing the no drug group.
PBMCs from donor 676 were activated and co-transduced with retroviruses encoding the pBP0220, 1310, 1327 vectors and the GFP-Fluc plasmid. (FIG. 109A) Eleven days post transduction, the cells were analyzed for CD19 and GFP transduction efficiency prior to injection into mice. (FIGS. 109B & C) NSG mice were injected i.v. with 107 T cells co-transduced with GFP-Fluc per mouse and suicide drugs were injected i.p. the next day. Bioluminescence of cells was assessed at −14, 0, 5, 24, and 29 hours post-drug administration. (FIG. 109D) At 29-h post-drug treatment, mice were euthanized and spleens were collected for flow cytometry analysis with antibodies to hCD3, […], and mCD45

Data set [4] deals with 293 cells. The data set can be described thus: SEAP assay: FRB-tagged CAR plus iCaspase-9 in 293 cells. It is filed as cell-based. The source says:
FIGS. 6A and 6B provide the results of an assay of two-tiered activation of apoptosis.
As a proof of principal, two tandem FRB, domains were fused to either a 1st generation Her2-CAR or to a 1st generation CD19-CAR co-expressing inducible Caspase-9. 293 cells were transiently transfected with a constitutive reporter plasmid, SRα-SEAP, along with normalized levels of expression plasmids encoding Her2-CAR-FRB2, iCaspase-9, Her2-CAR-FRBl2+iCasp9, iC9-CAR(19).FRBl2 (coexpressing both CD19-CAR-FRBl2 and iCaspase9), or control vector. […] After overnight incubation with drugs, SEAP activity was determined. […] This dose-dependent decrease required the presence of both the FRB-tagged CAR and the FKBP-tagged Caspase-9. […] Moreover, on- or off-target-mediated CAR clustering should increase the sensitivity of killing primarily at the site of scFv engagement.

The subject of data set [5] is HPAC PSCA+ tumor cells. Briefly: T cell anti-tumor assay with HPAC-RFP cells (IncuCyte, ELISA). It is filed as cell-based, human. The conditions noted are these: 10 nM on day 7 of co-culture. As for the experimental part: PBMCs from donor 920 were activated and co-transduced with GFP-Ffluc and iMC+CARζ-T (189), i9+CARζ+MC (873), or FwtFRBC9/MC.FvFv (1308)-encoding vectors. […] (A & B) Two days post-seeding, culture supernatants were analyzed for IL-2, IL-6, and IFN-γ production by ELISA. […] Numbers of HPAC-RFP and T cell-GFP at the E:T 1:2 ratio was analyzed using the basic analyzer software for the IncuCyte at day 7 (Ci) and day 8 with 0 nM suicide drug (Cii) and 10 nM suicide drug (Ciii). Similar analysis was also performed at the 1:5 E:T ratio (D). (Note: the y-axis in Ci and Di are at log-scale).
The HPAC PSCA^+ tumor cells were stably labeled with nuclear-localized RFP protein using the NucLight™ Red Lentivirus Reagent (Essen Bioscience, 4625). To set up the coculture, 4000 HPAC-RFP cells were seeded per well of 96-well plates in 100 μl of CTL medium without IL-2 for at least 4 hours to allow tumor cells to adhere. After transduction with the appropriate retrovirus and allowed to rest for at least 7 days in culture, T were seeded according to various E:T ratios to the HPAC-RFP-containing 96-well plates. […] Each plate was set up in duplicates, one plate to monitor with the IncuCyte cell imaging system and one plate for supernatant collection for ELISA assay on day 2. The plates were centrifuged for 5 min at 400×g and placed inside the IncuCyte (Essen Bioscience, Dual Color Model 4459) to monitor red fluorescence (and green fluorescence if T cells were labeled with GFP-Ffluc) every 2-3 hours for a total of 7 days at 10× objective. Image analysis was performed using the “HPAC-RFP_TcellsGFP_10×_MLD” processing definition. On day 7, HPAC-RFP cells were analyzed using the “Red Object Count (1/well)” metric. […] On day 8, Tcell-GFP cells were analyzed using the “Total Green Object Integrated Intensity” metric. Each condition was performed at least in duplicates and each well was imaged at 4 different locations.

Data set [6] deals with dual-switch TCR-modified T cells. The conditions noted are these: 10 nM Rap; 14±4% without drug.
The test system of data set [7] is T cells expressing ΔC9 alone (pBP1501). The data set can be described thus: T cell killing assay with caspase 3/7 green reagent monitored by IncuCyte, negative control ΔC9. Conditions: increasing doses, FIG. 108B. It is filed as cell-based, human.
Excerpt: To determine the functionality of these switches in activated T cells, retroviral supernatants were produced and transduced into PBMCs activated from 3 separate donors.
Data set [8] concerns iRC9 T cells (pBP1310, GFP-Fluc). Briefly: In vivo apoptotic activation in NSG mice, iRC9 T cells (IVIS imaging, spleen FACS). Further details: species or system mouse. Conditions: 10 mg/kg rapamycin i.p., at 24 hours, FIG. 109D. On the procedure:
as §1
PBMCs from donor 676 were activated and co-transduced with retroviruses encoding the pBP0220, 1310, 1327 vectors and the GFP-Fluc plasmid. (FIG. 109A) Eleven days post transduction, the cells were analyzed for CD19 and GFP transduction efficiency prior to injection into mice. (FIGS. 109B & C) NSG mice were injected i.v. with 107 T cells co-transduced with GFP-Fluc per mouse and suicide drugs were injected i.p. the next day. Bioluminescence of cells was assessed at −14, 0, 5, 24, and 29 hours post-drug administration. […]

The test system of data set [9] is 293 cells. This is another data set of the same source.
Excerpt: To determine if the polarity of heterodimerization and Caspase-9 assembly could be reversed, one to four 1 to 4 tandem copies of FKBP12 were subcloned into expression vector, pSH1, as above. […] As above, 293 cells were transfected with the SRα-SEAP reporter plasmid along with FRBL-ΔCaspase-9, plus a non-myristoylated scaffold protein containing 1 or 4 tandem copies of FKBP12.
Data set [10] has as its system 293 cells. The data set can be described thus: 293 cells transfected with iC9 or iRC9: caspase 3/7 (IncuCyte) and SRα SEAP assays. It is filed as cell-based. On the procedure:
293 cells were seeded at 300,000 cells/well in a 6-well plate and allowed to grow for 2 days. After 48 h, cells were transfected with 1 μg of experimental plasmids. Cells were harvested 48 h after transfection and diluted 2.5× their original volume.
For FIG. 52B left graph, the lines of the graph, as indicated at the 10^3 point of the x-axis are, from top to bottom, negative control, FKBP.FRB.C9, FRB.FKBP.C9, iC9. For FIG. 52B right graph, the lines of the graph at the 10^3 point of the x-axis are, from top to bottom negative control, iC9, FKBP.FRB.C9, and FRB.FKBP.C9.
On day 0, 5×10^5 293 cells were seeded onto 6-well plates in 2 ml DMEM medium (10% FBS+1% pen/strep). […] On day 2, cells were collected, and seeded onto 96-well plates containing 2× concentrated half-log drug dilutions and also analyzed by FACS for transfection efficiency. On day 3, the drug-treated cells were heat inactivated at 68° C. for 1 hour and supernatants were added to black 96-well plate containing 1 mM MUP substrate (2× concentration) diluted in 2M diethanolamine. The plates were incubated at 37° C. for 30 min and absorbance at 405 nm was measured.

The conditions of data set [11]: cited from earlier work.
The subject of data set [12] is CD3+ΔCD19+ (iCasp9+) T cells. Briefly: CASPALLO phase 1 clinical trial: AP1903 in patients with GvHD after iCasp9+ T cells. The conditions noted are these: human, in vivo.
Data set [13] concerns human CD3+CD19+ T cells. Briefly: AP1903 dose-dependent elimination in vivo of iCasp9-transduced T cells. Also on record: species or system immune deficient mice (NSG). Conditions: mouse. As for the experimental part:
The Caspase-9 polypeptide has a dose-response curve in vivo, which could be used to eliminate a variable fraction of T cells expressing the Caspase-9 polypeptide.
T cells were transduced with SFG-iCasp9-D330E-2A-ΔCD19 retrovirus and injected i.v. into immune deficient mice (NSG). […] After an additional 24 hours, mice were sacrificed and lymphocytes from the spleen (A) were isolated and analyzed by flow cytometry for the frequency of human CD3^+CD19^+ T cells.

Data set [14] relates to cells. Briefly: AP1903 amount needed in vitro for effective signaling of cells. Type of data set: cell-based. As for the experimental part: This equates to 16-160 μg/L or […] (1.6-160 μg/kg).

Where two headings read alike, the source gives them in different places. Where only a bound is given, the exact number is not on record here.

For the compound `CO[C@H]1C[C@@H]2CC[C@@H](C)[C@@](O)(O2)C(=O)C(=O)N2CCCC[C@H]2C(=O)O[C@H]([C@H](C)C[C@@H]2CC[C@@H](O)[C@H](OC)C2)CC(=O)[C@H](C)/C=C(\C)[C@@H](O)[C@@H](OC)C(=O)[C@H](C)C[C@H](C)/C=C/C=C/C=C/1C` [rapamycin], the IC50 in data set [1] and in data set [9] was about 3 nM in each case. Further, the “cell death of T cells within 24 hours in vivo” value in data set [2] was determined as 90%. Further, the “iRmC9 T cells remained in splenocytes (normalized to no drug group)” value in [3] is given as about 40%. For the same compound, in data set [4] (FRB-tagged CAR plus FKBP-tagged Caspase-9), the “maximal decrease of SEAP activity” value was about 50%. Further, the “elimination of FwtFRBC9/MC.FvFv T cells within 24 hours” value in [5] is “more than 60%”. Besides, the “Annexin-V+ cells” value in data set [6] is given as 72±5%. In addition, in data set [7], the “activity of negative control ΔC9 alone (pBP1501) in T cells” value is “not active”. Further, the “iRC9 T cells remained in splenocytes compared to no drug- and rimiducid-treated groups” value in [8] was about 25%. Further, in [10], the “rapamycin concentration at which iRC9 is highly active” value was determined as 100 µM.
Consider `CC[C@H](C(=O)N1CCCC[C@H]1C(=O)O[C@H](CCc1ccc(OC)c(OC)c1)c1cccc(OCC(=O)NCCNC(=O)COc2cccc([C@@H](CCc3ccc(OC)c(OC)c3)OC(=O)[C@@H]3CCCCN3C(=O)[C@@H](CC)c3cc(OC)c(OC)c(OC)c3)c2)c1)c1cc(OC)c(OC)c(OC)c1` (relative stereo) [AP1903, 2-Piperidinecarboxylic acid, 1-[(2S)-1-oxo-2-(3,4,5-trimethoxyphenyl)butyl]-, 1,2-ethanediylbis[imino(2-oxo-2,1-ethanediyl)oxy-3,1-phenylene[(1R)-3-(3,4-dimethoxyphenyl)propylidene]] ester, [2S-[1(R*),2R*[S*[S*[1(R*),2R*]]]]]-(9C1)], for which the “safety and tolerability in healthy volunteers” value in data set [11] (0.01-1.0 mg/kg, listed as API 903) is given as “No significant adverse effects”. In addition, the “adverse event considered possibly related to AP1903” value in [11] (1 volunteer at 1.0 mg/kg) is reported as “vasodilatation”. Further, in [11] (IV infusion over 2 hours), the “plasma level, % of maximal concentration at 2 hours post-dose” value was about 7% and the “plasma level, % of maximal concentration at 10 hours post-dose” value was about 1%. The serious adverse events entry in data set [11] (Phase 1 study in volunteers) is given as “No serious adverse events”. Moreover, in [11] (Phase 1 study), the well-tolerated doses entry is “up to 1 mg/kg”. Also, in data set [12], the “further reduction of CD3+ΔCD19+ cells within 24 hours” value is “further log reduction”; the “time to resolution of skin and liver aGvHD” value was at most 24 h. Further, the “dose sufficient to eliminate most modified T cells in vivo” value in data set [13] is reported as 0.5 mg/kg. Moreover, the “SEAP activity, % of normal levels” value in data set [4] (iCaspase-9) is on record as “about 20%”. The “amount needed in vitro for effective signaling of cells” value in [14] lay in the range of 10 to 100 nM.
